Test results taken from patent US7326684B2, “Peptides for enhancing resistance to microbial infections” (priority 2002, dated 2008).
Where two headings read alike, the source gives them in different places. *1 amine or outer side, *2 acyl side, *3 side chain or, on linkers, in order; H or OH if unused. Where a SMILES comes first, the peptide text is derived from it. Where no end group is shown, it is not given here. [ ]: non-standard residue; d: D form. Tyr(3-125I) = 3-[125I]iodotyrosine, O=C([C@H](Cc1ccc(O[*:3])c([125I])c1)N[*:1])[*:2]; Tyr(3-I) = N[C@@H](Cc1ccc(O)c(I)c1)C(=O)O

How the values were obtained:
[1] = system: mouse peritoneal macrophages infected with S. typhimurium 415; experiment: Combined action of streptomycine and peptide on digestion of S. typhimurium 415 by mouse peritoneal macrophages in vitro; conditions: streptomycine 50 μg/ml alone or 10 μg/ml + peptide 1 nM
[2] = molecular target: non-opioid receptors for β-endorphin on T lymphocytes; assay type: binding, human
[3] = system: T lymphocytes from the blood of healthy donors; experiment: Con A-induced proliferation of T lymphocytes; assay type: cell-based, human
[4] = molecular target: non-opioid receptors for β-endorphin on T lymphocytes; assay type: binding, human; conditions: for Ki: read-out: Ki, inhibition of [125I]β-endorphin binding
[5] = molecular target: high-affinity (non-opioid) β-endorphin receptors on murine peritoneal macrophages; conditions: read-out: Ki, inhibition of [125I]β-endorphin binding to non-opioid receptors
[6] = system: mouse peritoneal macrophages infected with S. typhimurium 415; experiment: Phagocytosis (digestion) of S. typhimurium 415 by mouse peritoneal macrophages in vitro; conditions: for Time within which phagocytes completely digested the captured microbes: peptide 1 nM; for BCA, bacterial cytocidal activity, percentage of phagocytes destroyed by intracellular bacteria / PA, phagocytic activity, percentage of macrophages participating in phagocytosis / PN, phagocytic number, average number of microbes per macrophage: tuftsin 100 nM, ± SEM
[7] = mouse, in vivo
[8] = in vivo; conditions: BCA, mouse, ip
[9] = molecular target: non-opioid (naloxone-insensitive) receptors for β-endorphin on T lymphocytes from normal human blood (human); experiment: radioligand saturation binding on human T lymphocytes, Scatchard plot, in the absence of naloxone
[10] = molecular target: non-opioid (naloxone-insensitive) receptors for β-endorphin on T lymphocytes from normal human blood (human); experiment: radioligand saturation binding on human T lymphocytes, Scatchard plot, in the presence of naloxone
[11] = molecular target: non-opioid (naloxone-insensitive) receptors for β-endorphin on T lymphocytes from normal human blood (human); experiment: displacement of 1 nM [125I]β-endorphin from human T lymphocytes; Ki=IC50/(1+[L]/Kd)
[12] = molecular target: non-opioid (naloxone-insensitive) receptors for β-endorphin on T lymphocytes from normal human blood (human); experiment: radioligand saturation binding on human T lymphocytes, Scatchard analysis, one-site model
[13] = molecular target: non-opioid (naloxone-insensitive) receptors for β-endorphin on T lymphocytes from normal human blood (human); experiment: radioligand saturation binding on human T lymphocytes, 4 °C, Scatchard analysis
[14] = read-out: Kd of labeled peptide binding to T lymphocytes
[15] = T lymphocytes of healthy donors
[16] = phagocytosis time 1 h, pentarphin, cyclopentarphin 1 nM
[17] = phagocytosis time 2 h, pentarphin, cyclopentarphin 1 nM
[18] = phagocytosis time 4 h, pentarphin, cyclopentarphin 1 nM
[19] = phagocytosis time 7 h, pentarphin, cyclopentarphin 1 nM
[20] = phagocytosis time 12 h, pentarphin 1 nM

## [H]/N=C(/N)N[C@H]1[C@H](O)[C@@H](O)[C@H](O[C@@H]2O[C@@H](C)[C@](O)(C=O)[C@H]2O[C@@H]2O[C@@H](CO)[C@H](O)[C@@H](O)[C@@H]2NC)[C@@H](N/C(N)=N\[H])[C@@H]1O [Streptomycine]
[1]; phagocytosis time 1 h, ± SEM
  BCA, bacterial cytocidal activity: 1.04 ± 0.32%
  PA, phagocytic activity: 86.45 ± 2.13%
  PN, phagocytic number: 8.56 ± 0.76 n
[1]; phagocytosis time 2 h, ± SEM
  BCA, bacterial cytocidal activity: 1.12 ± 0.74%
  PA, phagocytic activity: 96.17 ± 1.76%
  PN, phagocytic number: 2.03 ± 0.46 n
[1]; phagocytosis time 4 h
  BCA, bacterial cytocidal activity: 0%
  PA, phagocytic activity: 0%
  PN, phagocytic number: 0 n

## CC(C)[C@H](N)C(=O)N[C@@H](CCCCN)C(=O)NCC(=O)N[C@@H](Cc1ccccc1)C(=O)N[C@@H](Cc1ccc(O)c(I)c1)C(=O)O [[^125I]-H-VKGFY-OH] (H-VKGF[Tyr(3-I)]-OH)
[2]; [14]
  Kd: 36.3 ± 0.5 nM

## CC(C)C[C@H](NC(=O)[C@H](CS)NC(=O)[C@@H](NC(=O)[C@H](CC(C)C)NC(=O)[C@@H](N)CO)[C@@H](C)O)C(=O)N[C@H](C(=O)N[C@@H](CCCCN)C(=O)NCC(=O)N[C@@H](Cc1ccccc1)C(=O)N[C@@H](Cc1ccc(O)c(I)c1)C(=O)O)C(C)C [[^125I]-immunorphin] (H-SLTCLVKGF[Tyr(3-I)]-OH)
[2]; [14]
  Kd: 7 ± 0.3 nM
[2]; read-out: Kd of labeled peptide binding to T lymphocytes in the presence of naloxone
  Kd: 7.4 ± 0.2 nM

## C=CCN1CC[C@]23c4c5ccc(O)c4O[C@H]2C(=O)CC[C@@]3(O)[C@H]1C5 [naloxone]
[3]; [15]
  Effect on Con A-induced proliferation of T lymphocytes: not active

## H-CLVKGFY-OH [H-CLVKGFY-OH]
[4]
  Ki: 3.4 nM

## H-LTCLVKGFY-OH
[4]
  Ki: 1 nM

## H-LVKGFY-OH [H-LVKGFY-OH]
[4]
  Ki: 8 nM

## H-TCLVKGFY-OH
[4]
  Ki: 2.2 nM

## H-VKGFY-OH [Pentarphin, Val-Lys-Gly-Phe-Tyr]
[4]
  Ki: 15 nM
[5]
  Ki: 12 nM
[3]
  Effect on Con A-induced proliferation of T lymphocytes: stimulate
  Stimulating effect on T lymphocyte proliferation in presence of naloxone: not inhibited by naloxone
[2]; [14]
  Kd: 36.3 ± 0.5 nM
[6]
  Time within which phagocytes completely digested the captured microbes: ≤ 12 h
[6]; [16]
  BCA, bacterial cytocidal activity, percentage of phagocytes destroyed by intracellular bacteria: 1.08 ± 0.71%
  PA, phagocytic activity, percentage of macrophages participating in phagocytosis: 84.08 ± 2.12%
  PN, phagocytic number, average number of microbes per macrophage: 7.11 ± 0.15 n
[6]; [17]
  BCA, bacterial cytocidal activity, percentage of phagocytes destroyed by intracellular bacteria: 1.55 ± 0.65%
  PA, phagocytic activity, percentage of macrophages participating in phagocytosis: 89.15 ± 1.78%
  PN, phagocytic number, average number of microbes per macrophage: 9.29 ± 0.74 n
[6]; [18]
  BCA, bacterial cytocidal activity, percentage of phagocytes destroyed by intracellular bacteria: 9.32 ± 1.32%
  PA, phagocytic activity, percentage of macrophages participating in phagocytosis: 66.82 ± 1.14%
  PN, phagocytic number, average number of microbes per macrophage: 6.02 ± 0.66 n
[6]; [19]
  PA, phagocytic activity, percentage of macrophages participating in phagocytosis: 23.31 ± 0.84%
  PN, phagocytic number, average number of microbes per macrophage: 1.03 ± 0.24 n
[6]; [20]
  BCA, bacterial cytocidal activity, percentage of phagocytes destroyed by intracellular bacteria: 2.35 ± 1.21%
  PA, phagocytic activity, percentage of macrophages participating in phagocytosis: 3.73 ± 0.64%
  PN, phagocytic number, average number of microbes per macrophage: 0.66 ± 0.12 n
[7]
  Immunogenicity: No immunogenicity
[8]
  LD50: 2500 mg/kg

## SLTCLVKGFY [immunorphin]
[3]; [15]
  Effect on Con A-induced proliferation of T lymphocytes: stimulate

## Thr-Lys-Pro-Arg (TKPR; printed: Thr-Lys-Pro-Arg) [Tuftsin, reference compound]
[6]; [16]
  BCA, bacterial cytocidal activity, percentage of phagocytes destroyed by intracellular bacteria: 1.41 ± 0.27%
  PA, phagocytic activity, percentage of macrophages participating in phagocytosis: 66.07 ± 1.82%
  PN, phagocytic number, average number of microbes per macrophage: 5.84 ± 0.27 n
[6]; [17]
  BCA, bacterial cytocidal activity, percentage of phagocytes destroyed by intracellular bacteria: 8.12 ± 0.99%
  PA, phagocytic activity, percentage of macrophages participating in phagocytosis: 74.11 ± 1.42%
  PN, phagocytic number, average number of microbes per macrophage: 7.31 ± 0.25 n
[6]; [18]
  BCA, bacterial cytocidal activity, percentage of phagocytes destroyed by intracellular bacteria: 29.34 ± 0.75%
  PA, phagocytic activity, percentage of macrophages participating in phagocytosis: 61.97 ± 1.18%
  PN, phagocytic number, average number of microbes per macrophage: 6.29 ± 0.48 n
[6]; [19]
  BCA, bacterial cytocidal activity, percentage of phagocytes destroyed by intracellular bacteria: 31.46 ± 1.23%
  PA, phagocytic activity, percentage of macrophages participating in phagocytosis: 38.48 ± 0.23%
  PN, phagocytic number, average number of microbes per macrophage: 3.32 ± 0.56 n
[6]; [20]
  BCA, bacterial cytocidal activity, percentage of phagocytes destroyed by intracellular bacteria: 7.64 ± 1.38%
  PA, phagocytic activity, percentage of macrophages participating in phagocytosis: 9.31 ± 0.29%
  PN, phagocytic number, average number of microbes per macrophage: 1.36 ± 0.86 n
[6]; tuftsin acted the same way at 100 nM versus 1 nM
  Activity, times lower than pentarphin/cyclopentarphin: 100 times

## [125I]-immunorphin (peptide)
[9]
  Kd: 7 nM
[10]
  Kd: 7.4 nM

## [Met^5]enkephalin [Met-enkephalin, reference compound]
[4]
  Inhibition of β-endorphin binding in displacement assay: not inhibited
[3]
  Effect on Con A-induced proliferation of T lymphocytes: not active

## cyclo(Val-Lys-Gly-Phe-Tyr) (VKGFY; cyclic; printed: Val-Lys-Gly-Phe-Tyr) [Cyclopentarphin]
[6]
  Time within which phagocytes completely digested the captured microbes: ≤ 7 h
[6]; [16]
  BCA, bacterial cytocidal activity, percentage of phagocytes destroyed by intracellular bacteria: 1.25 ± 0.64%
  PA, phagocytic activity, percentage of macrophages participating in phagocytosis: 87.81 ± 3.14%
  PN, phagocytic number, average number of microbes per macrophage: 7.78 ± 0.39 n
[6]; [17]
  BCA, bacterial cytocidal activity, percentage of phagocytes destroyed by intracellular bacteria: 1.06 ± 0.49%
  PN, phagocytic number, average number of microbes per macrophage: 8.81 ± 0.27 n
[6]; [18]
  BCA, bacterial cytocidal activity, percentage of phagocytes destroyed by intracellular bacteria: 2.13 ± 0.60%
  PA, phagocytic activity, percentage of macrophages participating in phagocytosis: 57.43 ± 2.01%
  PN, phagocytic number, average number of microbes per macrophage: 5.32 ± 0.51 n
[6]; [19]
  BCA, bacterial cytocidal activity, percentage of phagocytes destroyed by intracellular bacteria: 2.22 ± 1.31%
  PA, phagocytic activity, percentage of macrophages participating in phagocytosis: 1.74 ± 0.44%
  PN, phagocytic number, average number of microbes per macrophage: 0.27 ± 0.20 n

## immunorphin (H-…-OH) (peptide)
[11]
  Ki: 0.6 nM

## H-LTCLVKGFY-OH [H-…-OH]
[11]
  Ki: 1 nM

## H-CLVKGFY-OH [H-CLVKGFY-OH]
[11]
  Ki: 3.4 nM

## H-VKGFY-OH (also: 125I label, residue not given here) [[125I]-H-VKGFY-OH]
[12]
  Kd: 36.3 nM

## H-TCLVKGFY-OH [H-TCLVKGFY-OH]
[11]
  Ki: 2.2 nM

## H-VKGFY-OH [pentarphin (H-VKGFY-OH)]
[11]
  Ki: 15 nM

## YGGFMTSEKSQTPLVTLFKNAIIKNA[Tyr(3-125I)]KKGE [(3-[125I]iodotyrosyl27)β-endorphin]
[13]
  Kd: 0.25 nM

## H-LVKGFY-OH [H-LVKGFY-OH]
[11]
  Ki: 8 nM
